According to a melting point compilation (Tetko et al.; mined from patent text by program, amines drawn as free bases though some values may be those of a salt):

| melting point | SMILES |
| --- | --- |
| 189 to 190 °C | COc1ccc2c(c1)C1(CCCCc3ccccc31)NC2=O (stereo unspecified) |
| 92 to 93 °C | O=C(O)c1cccc(N(CCc2ccccc2)c2nnc(-c3cccc(Oc4cccc(C(F)(F)F)c4)c3)s2)c1 |
| 130 °C | COc1ccc(S(=O)(=O)C2(C(=O)O)CCN(Cc3cccc(OC)c3)CC2)cc1 |
| 204 to 206 °C | N#Cc1c(C(=O)NC2CC2)cnn1-c1ccc(Cl)cc1 |
| 244 °C | CC(=O)Nc1cc2c3c(c1)[nH]c(=O)n3C[C@H](C)N(CC1CC1)C2 |
| > 270 °C | CSc1ncc(C(=O)O)c(Nc2ccc3[nH]ncc3c2)n1 |
| 142 to 145 °C | OCc1ccc(C2CCCc3cncn32)cc1 (stereo unspecified) |
| 263 to 266 °C | O=C1OCCC23C(=CC=CC12)C1=C(C=C3c2ccc3c(c2)OCO3)OCO1 (stereo unspecified) |
| 91.5 to 93.5 °C | CN(Cc1ccc(S(C)=O)s1)C(=O)C12CC3CC(CC(C3)C1)C2 (stereo unspecified) |
| 95 to 97 °C | CC(CO)(CO)C(=O)N1CCOCC1 |
| 94 to 97 °C | Cc1noc(-c2nc(-c3c(F)cccc3F)nn2C)c1Cl |
| 143 to 145 °C | Cc1nc(N2CCC(Cc3ccc(OC(F)F)cc3)C2=O)sc1C(=O)NCc1ccc(F)cc1 (stereo unspecified) |
| 275 to 324 °C | CCOC(=O)c1ccc2c(=O)n3cc(C(=O)O)ccc3nc2c1 |
| 105 to 107 °C | OCC1OC(n2cnc3c(NNC4CCSc5ccccc54)ncnc32)C(O)C1O (stereo unspecified) |
| 170 to 174 °C | CCC(=O)N1CCC(NC(=O)Nc2c(Cl)cccc2Cl)CC1 |
| 56 to 60 °C | COc1ccc(OCCCO)cc1 |
| 97 °C | COc1cccc(CCN2C(=O)c3ccccc3C2(O)c2cccnc2)c1 (stereo unspecified) |

| melting point | SMILES |
| --- | --- |
| 98 to 100 °C | CN1CCN2c3ccccc3Cn3cccc3C2C1 (stereo unspecified) |
| 212 to 215 °C | Cc1ccc(C(C)(C)C)c(O)c1-c1nc2cc(C#N)ccc2[nH]1 |
| 227 °C | Cc1ccc(N2C(=O)C(O)=C(C(=NOCC(=O)O)c3ccc(C(C)C)cc3)C2c2ccc(OC(F)(F)F)cc2)nn1 (stereo unspecified) |
| 239 to 240 °C | COc1cc2[nH]c(C(=O)O)cc2cc1F |
| 87 to 88 °C | CCOC(=O)C=Cc1cc(OC)c(OC)c([N+](=O)[O-])c1 |
| 236 to 238 °C | O=C1C2=C(CCCC2)C(=O)N1c1ccc(Cl)c(O)c1 |
| 192 to 194 °C | COc1cc2ncc(C#N)c(Nc3ccc(F)c(Cl)c3)c2cc1-n1cccc1 |
| 182 to 185 °C | CC1NC(=O)NN=C1c1ccc(NCCO)cc1 (stereo unspecified) |
| 188 °C | CC(C)(c1cc(Cl)cc([N+](=O)[O-])c1O)c1cc(Cl)cc([N+](=O)[O-])c1O |
| 113 to 114 °C | Cc1nn(C)cc1C(=O)NC(C#N)c1ccsc1 (stereo unspecified) |
| 163 to 165 °C | CC(=O)NC[C@H]1CN(c2ccc3c(c2)OCC(C)N3)C(=O)O1 (stereo partly specified) |
| 99 to 101 °C | COc1cccc(-c2nn(C)c3ccsc23)c1 |
| 214 to 216 °C | Cc1oc(-c2ccccc2)nc1CCOc1ccc(C[C@H](NC(=O)C=Cc2cccc(C(F)(F)F)c2)C(=O)O)cc1 |
| 155 to 157 °C | Cc1cccc(N2CCN(CCc3nc4cc(Br)c5ccccc5c4n3C)CC2)c1 |
| 74 to 76 °C | O=C(NCCSCc1cccc(Br)c1)c1c(Cl)cccc1Cl |
| 130 to 132 °C | CCCn1c2cc(C)ccc2c2oc(C(=O)Cl)cc21 |

The remaining lines, values behind:

| SMILES | melting point |
| --- | --- |
| Nc1sc2c(c1C(=O)c1ccc(Br)c3ccccc13)CCCC2 | 176 to 178 °C |
| COC(=O)c1cc(N)c(N)cc1OC | > 300 °C |
| Cc1ccc(C(=O)OCCOC(=O)NC2(C(=O)O)CC2)cc1 | 178 to 182 °C |
| Cc1sc2cc3ccccc3c(-c3ccc(OS(=O)(=O)c4ccc(C(=O)O)c(O)c4)c(C4CCCC4)c3)c2c1C | 230 to 237 °C |
| O=C(CCCN1CCc2ccccc2C1)c1ccc(F)cc1 | 69 to 71 °C |
| CN1CCCc2cc(C(C)(C(=O)O)c3ccc4c(c3)CCCN4C)ccc21 | 155 to 157 °C |
| CC(C)c1ccc(N(Cc2ccc(N(C)C)cc2)C(=O)C2CCCc3cc(OCCN(C)C)ccc32)cc1 (stereo unspecified) | 133 °C |
| CCN1CNC(=O)NC1=O | 220 to 224 °C |
| COc1ccc(-n2c(N)cc(=O)nc2SC)cc1 | 182 to 186 °C |
| CCOC(=O)c1cc2cc(F)cnc2n1Cc1ccccc1 | 74 to 75 °C |
| Cc1nc(N2CCc3ccccc3CC2)c(C#N)c(=O)n1OCC(F)(F)F | > 200 °C |
| CCOC(=O)c1cnn2c(-c3ccccc3)ccnc12 | 129 to 130 °C |
| COc1ccc(-c2nn(-c3ccc(C)cc3)c3ncccc23)cc1 | 143 to 145 °C |
| CN1CCCCC1COC(=O)c1c[nH]c2ccccc12 (stereo unspecified) | 168 to 170 °C |
| Clc1cccc2c1CN(Cc1c[nH]c3ccccc13)C2 | 163 to 165 °C |
| CC(CCC=O)C1CCC2C3CC=C4CC(O)CC(O)C4(C)C3CCC12C (stereo unspecified) | 120 to 122 °C |
| CCCc1c(OCC(O)CSCCN(C)C)ccc(C(C)=O)c1O (stereo unspecified) | 54 to 55 °C |
| CC(C)n1nc(-c2sc(C(=O)NCCc3ccccn3)nc2-c2ccccc2)ccc1=O | 144 to 147 °C |
| CCCCCCCCCCCCCCCCNc1ccc(O)c2c1C(=O)c1c(N)ccc(N)c1C2=O | 174 °C |
| COc1ccc2c(cc3n2Cc2ccccc2-3)n1 | 192 to 193 °C |
| Cc1ccc(-c2ccc3c(c2)C=C(C(=O)Nc2ccc(C(O)CN4CCCCC4)cc2)CCO3)cc1 (stereo unspecified) | 212 to 213 °C |
| NC(=O)COc1ccc(-c2n[nH]c3c2Cc2ccccc2-3)cc1 | 247 to 248 °C |
| O=S(=O)(Cc1ccccc1)c1ncc(Cl)cn1 | 122 to 124 °C |

| SMILES | melting point |
| --- | --- |
| Cc1cc(C)cc(Sc2c(C(C)C)c(=O)[nH]c(=O)n2CCC2C=CCC2)c1 (stereo unspecified) | 138 to 140 °C |
| CCOC(=O)c1cnn2c1c(NCCCN(C)C)nc1ccccc12 | 72 to 74 °C |
| CCCCCCCOc1ccc(-c2ccc(OCc3ccccc3)c(F)c2)cc1F | 98.7 to 100 °C |
| N#CCC(=O)NNC(=O)Nc1ccsc1CC(=O)Oc1ccc([N+](=O)[O-])cc1 | 132 to 135 °C |
| COc1ccc(C[C@@H](CO)NC(=O)c2ccnc(-n3nc(-c4cccnc4)c4ccccc4c3=O)c2)cc1OC | 135 to 137 °C |
| Nc1ccccc1-c1ccc(CCCC(=O)O)cc1 | 123 to 126 °C |
| N#CC1OC(=O)c2c(F)cccc21 (stereo unspecified) | 117 to 120 °C |
| Clc1ncnc2ccoc12 | 122 °C |
| CNC(=NS(C)(=O)=O)NCCCCc1csc(NC(N)=NCCO)n1 | 128 to 132 °C |
| COc1ccc(-c2cc(=O)c3ccc(OCC4CO4)cc3o2)cc1OC (stereo unspecified) | 148 to 149 °C |
| OCc1cc2ccccc2cc1CO | 161 to 162 °C |
| C[C@@H]1Cc2cc3c(cc2C(c2ccc([N+](=O)[O-])cc2)=NN1C(=S)NN)OCO3 | 140 to 142 °C |
| CCc1nsc(NC(=O)C(C)c2ccc3oc(-c4c(Cl)cccc4Cl)nc3c2)c1Cl (stereo unspecified) | 180 to 183 °C |
| C[C@H](NC(=O)OC(C)(C)C)C(=O)CCl | 64 to 66.5 °C |
| CC(=O)NCC(C)(C)c1ccc2nc(C)[nH]c2c1 | 198 to 201 °C |
| CCCCN(C(=O)C1CC1)c1nnc(C)s1 | 82 to 84 °C |
| CCc1nc2c(c(=O)n(C)c(=O)n2-c2ccc(Cl)cc2Cl)n1Cc1ccc(OC)cc1 | 209 to 210 °C |
| N#Cc1nn(-c2c(Cl)cc(C(F)(F)F)cc2Cl)cc1C1(C(F)(F)F)CC1 | 141 °C |
| Cc1cc(F)ccc1Nc1nc(N(C)c2ccccc2)c2cccc(OCCCN3CCOCC3)c2n1 | 133 to 134 °C |
| CSc1c2c3c(cccc3n1CO)C1C=C(C)CN(C)C1C2 (stereo unspecified) | 133 to 135 °C |
| CC(=O)c1ccc(NS(C)(=O)=O)c(Oc2ccccc2S(C)(=O)=O)c1 | 189 to 191 °C |
| CCOC(=O)c1ccc(N)cc1-c1ccc(OC)c(OC)c1 | 127 °C |
| Cn1nc([N+](=O)[O-])cc1CO | 66 to 68 °C |

| SMILES | melting point |
| --- | --- |
| NS(=O)(=O)c1ccc(Cl)cc1NC(=O)Nc1cccc(C(F)(F)F)c1 | 163 to 165 °C |
| CC(C)(C)OC(=O)N1CCC(c2ccc(COc3ccc(-n4cncn4)cc3)nc2)CC1 | 147 to 150 °C |
| COC(=O)c1cccc(C(=O)c2ccc(O)c(OC)c2)c1 | 133 to 134 °C |
| Cc1ccc(-n2c3ccccc3c3ccccc32)cc1 | 104 to 106 °C |
| COC(=O)C1OC2(CCC3(CC2)OC(C(=O)OC)C(C(=O)OC)O3)OC1C(=O)OC (stereo unspecified) | 75 to 77 °C |
| COc1ccc2c(c1)CC[C@@H](O)[C@@H]2n1nc(-c2c(-c3ccccc3)nn3ccccc23)ccc1=O (relative stereo) | 146 to 150 °C |
| COc1ccc(N2C(=O)N(c3cccc(C#N)c3)c3nc(Nc4ccccc4)ncc3C2C)c(F)c1 (stereo unspecified) | 223 to 228 °C |
| O=C1OC(Cl)(Cl)c2c(Cl)c(Cl)c(Cl)c(Cl)c21 | 136 to 138 °C |
| Clc1ccc(C(c2ccc(Cl)cc2)N2CCN(C(c3ccccc3)c3c[nH]c4cccc(Cl)c34)CC2)cc1 (stereo unspecified) | 100 to 105 °C |
| COc1ccc(Cc2nc3c(N)nc4ccccc4c3n2CCCCNC(=O)c2ccc3ccccc3n2)cc1 | 95.1 to 97.4 °C |
| COc1cc(Cl)c(N=C2NCCN2O)c(Cl)c1 | 199 to 201 °C |
| CCN(SN(C)C=Nc1ccc(C)cc1C)c1ccccc1 | 52 to 53 °C |
| N[C@@H](Cc1ccc(O)cc1)[C@H](O)C(F)(F)F | 172 to 174 °C |
| N#Cc1ccc(Nn2cnnc2)cc1Br | 234 to 236 °C |
| CCOC(=O)c1cn2ccc(NC(=O)c3cc4cc(C(F)(F)F)ccc4n3Cc3cccc(F)c3)cc2n1 | 282 to 283 °C |
| N#Cc1ccc(C(=O)N2CCc3cc(S(=O)(=O)N4CC(c5ccccc5)NC4=O)ccc32)cc1 (stereo unspecified) | 241 to 243 °C |
| COC(=O)C1=C(C)N(CCCN2CCCCC2)c2cc[nH]c(=O)c2C1c1ccccc1C(F)(F)F (stereo unspecified) | 168 to 170 °C |
| Cc1cc(O)c(S(=O)CC(C)C)c(=O)o1 (stereo unspecified) | 102 to 103 °C |
| CC1(C)C2CC[C@]1(CS(=O)(=O)NCCNCC1COc3ccccc3O1)C(=O)C2 (stereo partly specified) | 143 to 146 °C |
| CCCCCC(=O)NCc1nc(-c2ccc3c(c2)Nc2ccccc2S3)cs1 | 192 to 194 °C |
| COc1cc(OC(C)(C)C(=O)O)c(C=O)cc1-c1cccs1 | 187 to 188 °C |
| O=C(CN1C(=O)CC1SCc1ccccc1)NCCCCCCc1ccc(F)cc1F (stereo unspecified) | 65 to 66 °C |
